{"source": "ChEMBL document CHEMBL3244093", "about": "“Synthesis and antiinflammatory activity of trisubstituted pyrimidines and triazines” (1978)"}
{"tested_on": "Rattus norvegicus", "assay": "Antiinflammatory activity in po dosed rat assessed as inhibition of carrageenan-induced foot edema compound administered 1 hr before carrageenan challenge measured after 3 to 3.5 hrs relative to untreated control", "format": "functional", "units": {"ED50": "mg/kg"}}
{"smiles": "CC(C)(C)C1CCc2ncncc2C1", "note": "(stereo unspecified)", "ED50": 58}
{"smiles": "Cc1ccc2c(-c3ccccc3)nc(=O)n(C(C)C)c2c1", "note": "[PROQUAZONE]", "ED50": 5.2}
{"smiles": "CC(C)(C)c1ccnc(O)n1", "ED50": 43}
{"smiles": "CN(C)CC(=O)Nc1ncc(-c2ccccc2)c(C(C)(C)C)n1", "ED50": 84}
{"smiles": "c1ccc(-c2cncnc2-c2ccncc2)cc1", "ED50": 95}
{"smiles": "COc1ccc(-c2cnc(N)nc2-c2ccc(OC)cc2)cc1", "ED50": 85}
{"smiles": "Cc1nccc(-c2ccncc2)n1", "ED50": 47}
{"smiles": "CC(C)(C)c1c[n+]([O-])cnn1", "ED50": 98}
{"smiles": "Cc1cnc(N)nc1-c1ccncc1", "ED50": 66}
{"smiles": "Nc1nccc(-c2ccncc2)n1", "note": "[listing 1 of 2 here]", "ED50": 38}
{"smiles": "Cc1c(-c2ccccc2)nnc[n+]1[O-]", "ED50": 64}
{"smiles": "CNc1nccc(-c2ccncc2)n1", "ED50": 49}
{"smiles": "CCCCC1C(=O)N(c2ccccc2)N(c2ccccc2)C1=O", "note": "[PHENYLBUTAZONE]", "ED50": 25}
{"tested_on": "Rattus norvegicus", "assay": "Antiinflammatory activity in rat assessed as inhibition of carrageenan-induced foot edema at 100 mg/kg, po administered 1 hr before carrageenan challenge measured after 3 to 3.5 hrs relative to untreated control", "format": "functional", "units": {"inhibition in vivo at 100 mg/kg": "%"}}
{"smiles": "CC(C)(C)C1CCc2nnc[n+]([O-])c2C1", "note": "(stereo unspecified)", "inhibition in vivo at 100 mg/kg": 36}
{"smiles": "CC(C)(C)C1CCc2nncnc2C1", "note": "(stereo unspecified)", "inhibition in vivo at 100 mg/kg": 49}
{"smiles": "Cc1ncc2c(n1)-c1ccccc1CC2", "inhibition in vivo at 100 mg/kg": "< 5"}
{"smiles": "CC(C)(C)c1ccnc(Nc2ccccc2)n1", "inhibition in vivo at 100 mg/kg": 21}
{"smiles": "Cc1nnc2c([n+]1[O-])CC(C(C)(C)C)CC2", "note": "(stereo unspecified)", "inhibition in vivo at 100 mg/kg": 48}
{"smiles": "Cc1nnc(C(C)(C)C)c[n+]1[O-]", "inhibition in vivo at 100 mg/kg": 22}
{"smiles": "c1ccc2c(c1)ccc1ncnnc12", "inhibition in vivo at 100 mg/kg": "< 5"}
{"smiles": "Cc1ncc2c(n1)-c1ccccc1C2", "inhibition in vivo at 100 mg/kg": "< 5"}
{"smiles": "CC(C)(C)c1nc(NC(=O)CCCC(=O)O)ncc1-c1ccccc1", "inhibition in vivo at 100 mg/kg": 5}
{"smiles": "Cc1nc(-c2ccccc2)nnc1-c1ccccc1", "inhibition in vivo at 100 mg/kg": "< 5"}
{"smiles": "Cc1ncnnc1-c1ccccc1", "inhibition in vivo at 100 mg/kg": "< 5"}
{"smiles": "Nc1nccc(-c2cccnc2)n1", "inhibition in vivo at 100 mg/kg": 32}
{"smiles": "CC(C)(C)c1cnc(-c2ccccc2)nn1", "inhibition in vivo at 100 mg/kg": 38}
{"smiles": "NC(=O)Nc1nccc(-c2ccncc2)n1", "inhibition in vivo at 100 mg/kg": 12}
{"smiles": "c1cc(-c2ccncn2)ccn1", "inhibition in vivo at 100 mg/kg": 45}
{"smiles": "Nc1ncc2c(n1)-c1ccccc1CC2", "inhibition in vivo at 100 mg/kg": 32}
{"smiles": "Cc1cncnc1-c1ccccc1", "inhibition in vivo at 100 mg/kg": 48}
{"smiles": "c1ccc2c(c1)CCc1cncnc1-2", "inhibition in vivo at 100 mg/kg": 32}
{"smiles": "CN1CCc2nc(N)ncc2C1", "inhibition in vivo at 100 mg/kg": "< 5"}
{"smiles": "COc1ccc(-c2cnc(C)nc2-c2ccc(OC)cc2)cc1", "inhibition in vivo at 100 mg/kg": "< 5"}
{"smiles": "CCOC(=O)Nc1nccc(-c2ccncc2)n1", "inhibition in vivo at 100 mg/kg": 31}
{"smiles": "Cc1ncc2c(n1)CCC(C(C)(C)C)C2", "note": "(stereo unspecified)", "inhibition in vivo at 100 mg/kg": "< 5"}
{"smiles": "CNc1nccc(C(C)(C)C)n1", "inhibition in vivo at 100 mg/kg": 34}
{"smiles": "CN1CCc2ncncc2C1", "inhibition in vivo at 100 mg/kg": 50}
{"smiles": "N#CNc1nccc(-c2ccncc2)n1", "inhibition in vivo at 100 mg/kg": "< 5"}
{"smiles": "CNc1ncc(-c2ccccc2)c(C(C)(C)C)n1", "inhibition in vivo at 100 mg/kg": 37}
{"smiles": "CC(C)(C)Nc1nccc(C(C)(C)C)n1", "inhibition in vivo at 100 mg/kg": 26}
{"smiles": "CCOC(=O)Nc1ncc(-c2ccccc2)c(C(C)(C)C)n1", "inhibition in vivo at 100 mg/kg": 24}
{"smiles": "CCCCc1nnc2c(ccc3ccccc32)n1", "inhibition in vivo at 100 mg/kg": "< 5"}
{"smiles": "Cc1ncc2c(n1)CCN(C)C2", "inhibition in vivo at 100 mg/kg": 45}
{"smiles": "CC(C)(C)c1ccnc(Cl)n1", "inhibition in vivo at 100 mg/kg": "< 5"}
{"smiles": "Cc1nnc2c(ccc3ccccc32)n1", "inhibition in vivo at 100 mg/kg": "< 5"}
{"smiles": "CC(C)(C)c1ccnc(S)n1", "inhibition in vivo at 100 mg/kg": 22}
{"smiles": "Cc1ncc2c(n1)-c1ccccc1CCC2", "inhibition in vivo at 100 mg/kg": "< 5"}
{"smiles": "Nc1nccc(-c2ccncc2)n1", "note": "[listing 2 of 2 here]", "inhibition in vivo at 100 mg/kg": 18}
{"smiles": "CC(C)(C)c1nc(NC#N)ncc1-c1ccccc1", "inhibition in vivo at 100 mg/kg": "< 5"}
{"smiles": "Cc1ncc(C)c(-c2ccccc2)n1", "inhibition in vivo at 100 mg/kg": 12}
{"smiles": "CC(C)(C)c1ccnc(NCCc2ccccc2)n1", "inhibition in vivo at 100 mg/kg": 10}
{"smiles": "CC(=O)N(C(C)=O)c1ncc(-c2ccccc2)c(C(C)(C)C)n1", "inhibition in vivo at 100 mg/kg": 22}
{"smiles": "Cc1ncc2c(n1)CCCCCCCCCC2", "inhibition in vivo at 100 mg/kg": "< 5"}
{"smiles": "CC(C)(C)c1c[n+]([O-])c(-c2ccccc2)nn1", "inhibition in vivo at 100 mg/kg": 35}
{"smiles": "CC(C)(C)C1CCc2nnc(-c3ccccc3)[n+]([O-])c2C1", "note": "(stereo unspecified)", "inhibition in vivo at 100 mg/kg": 15}
{"smiles": "CC(C)(C)c1nc(N)ncc1-c1ccccc1", "inhibition in vivo at 100 mg/kg": 46}
{"smiles": "Cc1nnc2c(n1)CC(C(C)(C)C)CC2", "note": "(stereo unspecified)", "inhibition in vivo at 100 mg/kg": "< 5"}
{"smiles": "CC(=O)Nc1nccc(-c2ccncc2)n1", "inhibition in vivo at 100 mg/kg": 52}
{"smiles": "CC(C)(C)c1ccnc(NCc2ccccc2)n1", "inhibition in vivo at 100 mg/kg": 14}
{"smiles": "CC(C)(C)c1ncncc1-c1ccccc1", "inhibition in vivo at 100 mg/kg": 48}
{"smiles": "Nc1ncc(-c2ccccc2)c(-c2ccncc2)n1", "inhibition in vivo at 100 mg/kg": 48}
{"smiles": "Nc1nccc(-c2ccccn2)n1", "inhibition in vivo at 100 mg/kg": 17}
{"smiles": "CC(C)(C)C1CCc2nc(N)ncc2C1", "note": "(stereo unspecified)", "inhibition in vivo at 100 mg/kg": 41}
{"smiles": "CC(C)(C)c1nc(N)ncc1-c1ccc(Cl)cc1", "inhibition in vivo at 100 mg/kg": 25}
{"smiles": "Nc1ncc2c(n1)CCCCCCCCCC2", "inhibition in vivo at 100 mg/kg": "< 5"}
{"smiles": "c1ncc2c(n1)CCCCCCCCCC2", "inhibition in vivo at 100 mg/kg": "< 5"}
{"smiles": "c1ccc(-c2nccc(-c3ccncc3)n2)cc1", "inhibition in vivo at 100 mg/kg": 42}
{"smiles": "Cc1ncc(C(C)(C)C)nn1", "inhibition in vivo at 100 mg/kg": 25}
{"smiles": "CN(C)c1nccc(C(C)(C)C)n1", "inhibition in vivo at 100 mg/kg": 18}
{"smiles": "CC(C)(C)c1nc(N)ncc1-c1cccc(C(F)(F)F)c1", "inhibition in vivo at 100 mg/kg": 8}
{"smiles": "CC(C)(C)c1nc(-c2ccccc2)ncc1-c1ccccc1", "inhibition in vivo at 100 mg/kg": "< 5"}
{"smiles": "c1ccc2c(c1)CCCc1ncnnc1-2", "inhibition in vivo at 100 mg/kg": "< 5"}
{"smiles": "Cc1cncnc1-c1ccncc1", "inhibition in vivo at 100 mg/kg": 50}
{"smiles": "Cc1ncc(-c2ccccc2)c(C(C)(C)C)n1", "inhibition in vivo at 100 mg/kg": 22}
{"smiles": "CC(C)(C)c1ccnc(N)n1", "inhibition in vivo at 100 mg/kg": 32}
{"smiles": "CC(C)(C)c1nc(NN)ncc1-c1ccccc1", "inhibition in vivo at 100 mg/kg": "< 5"}
{"smiles": "Cc1cnc(N)nc1-c1ccccc1", "inhibition in vivo at 100 mg/kg": 34}
{"smiles": "CC(C)(C)c1nc(NC(N)=O)ncc1-c1ccccc1", "inhibition in vivo at 100 mg/kg": 14}
{"smiles": "CSc1nccc(C(C)(C)C)n1", "inhibition in vivo at 100 mg/kg": 35}
{"smiles": "CC(=O)Nc1ncc(-c2ccccc2)c(C(C)(C)C)n1", "inhibition in vivo at 100 mg/kg": 29}
{"smiles": "c1ccc(-c2nnc3c(ccc4ccccc43)n2)cc1", "inhibition in vivo at 100 mg/kg": "< 5"}
